According to patent publication US10294202B2, “Pyrrolidinones as herbicides” (FMC Corporation, priority 2013, dated 2019):

How the values were obtained:
barnyardgrass = assay: Test C pre-/postemergence herbicide test; assay type: in vivo, Echinochloa crus-galli; details: for Barnyardgrass plant response rating: scale 0 to 100, 0 is no effect and 100 is complete control
In short: (§1)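 Two application timings ran in parallel with identically formulated test chemicals (non-phytotoxic solvent, surfactant included): spray on seeded loam–sand soil, and spray on emerged plants 2 to 18 cm high. Evaluation at 13 to 15 days compared each species with controls, rated from 0 up to 100.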

giant foxtail = assay: Test A pre-/postemergence herbicide test; assay type: in vivo, Setaria faberii; details: for Plant response rating, Foxtail, Giant: 0 to 100 scale
In short: (§2)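 Directed soil spray to seeded pots (preemergence) or spray onto one- to two-leaf seedlings 2–10 cm tall (postemergence); loam/sand substrate throughout. Evaluated visually after about 10 days against untreated plants, 0 = no effect, 100 = complete control.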

wheat = assay: Test A pre-/postemergence herbicide test; assay type: in vivo, Triticum aestivum; details: Postemergence; for Plant response rating, Wheat: 125 g ai/ha, 0 to 100 scale, 0 is no effect, 100 is complete control; for Wheat plant response rating (0 to 100 scale, 0 is no effect, 100 is complete control): 500 g ai/ha
In short: as §2

foxtail, giant = assay: Test C pre-/postemergence herbicide test; assay type: in vivo, Setaria faberii
In short: as §1

morningglory = assay: Test C pre-/postemergence herbicide test; assay type: in vivo, Ipomoea coccinea
In short: as §1

johnsongrass = assay: Test C pre-/postemergence herbicide test; assay type: in vivo, Sorghum halepense
In short: as §1

wheat (winter wheat) = assay: Test C pre-/postemergence herbicide test; assay type: in vivo, Triticum aestivum
In short: as §1

galium = assay: Test C pre-/postemergence herbicide test; assay type: in vivo, Galium aparine
In short: as §1

pigweed = assay: Test C pre-/postemergence herbicide test; assay type: in vivo, Amaranthus retroflexus
In short: as §1

lambsquarters = assay: Test C pre-/postemergence herbicide test; assay type: in vivo, Chenopodium album
In short: as §1

[1] = Postemergence, 31 g ai/ha, scale 0 to 100 (0 no effect, 100 complete control)
[2] = Postemergence, 62 g ai/ha, scale 0 (no effect) to 100 (complete control)
[3] = Postemergence, 125 g ai/ha, scale 0 to 100 (0 no effect, 100 complete control)
[4] = Postemergence, 250 g ai/ha, scale 0 to 100 (0 no effect, 100 complete control)
[5] = Preemergence, 62 g ai/ha, scale 0 to 100
[6] = Preemergence, 125 g ai/ha, scale 0 to 100 (0 no effect, 100 complete control)
[7] = 125 g ai/ha, visual rating, 0 no effect, 100 complete control, approximately 10 days, preemergence
[8] = Postemergence, 125 g ai/ha, 0 is no effect, 100 is complete control
[9] = preemergence, 500 g ai/ha, 0 is no effect and 100 is complete control
[10] = Preemergence, 31 g ai/ha, scale 0 to 100, 0 is no effect and 100 is complete control
[11] = Preemergence, 62 g ai/ha, scale 0 to 100 (0 no effect, 100 complete control)

O=C1NCC(c2cccc(C(F)(F)F)c2)C1C(=O)Nc1ccc(F)cc1F (racemic) [Compound 207]
Plant response rating, Barnyardgrass (barnyardgrass; [1]): 0 | Plant response rating, Barnyardgrass (barnyardgrass; [2]): 10 | Plant response rating, Barnyardgrass (barnyardgrass; [3]): 35 | Plant response rating, Barnyardgrass (barnyardgrass; [4]): 65 | Barnyardgrass plant response rating (barnyardgrass; Preemergence, 31 g ai/ha): 75 | Plant response rating, Barnyardgrass (barnyardgrass; [5]): 85 | Plant response rating, Barnyardgrass (barnyardgrass; [6]): 85 | Plant response rating (scale of 0 to 100; 0 is no effect, 100 is complete control), Barnyardgrass (barnyardgrass; Preemergence, 250 g ai/ha): 95 | Plant response rating, Foxtail, Giant (giant foxtail; [7]): 90 | Plant response rating, Foxtail, Giant (giant foxtail; [8]): 90 | Foxtail, Giant plant response rating (0 to 100 scale, 0 is no effect, 100 is complete control) (giant foxtail; Postemergence, 500 g ai/ha): 90 | Plant response rating, Foxtail, Giant (giant foxtail; [9]): 90 | Plant response rating, Wheat (wheat): 0 | Wheat plant response rating (0 to 100 scale, 0 is no effect, 100 is complete control) (wheat): 60 | Plant response rating, Foxtail, Giant (foxtail, giant; [1]): 20 | Plant response rating, Foxtail, Giant (foxtail, giant; [2]): 0 | Plant response rating, Foxtail, Giant (foxtail, giant; [3]): 65 | Plant response rating, Foxtail, Giant (foxtail, giant; [4]): 75 | Foxtail, Giant plant response rating (foxtail, giant; [10]): 85 | Foxtail, Giant plant response rating (foxtail, giant; [11]): 90 | Plant response rating, Foxtail, Giant (foxtail, giant; [6]): 90 | Plant response rating (scale of 0 to 100), Foxtail, Giant (foxtail, giant; Preemergence, 250 g ai/ha): 98 | Plant response rating, Morningglory (morningglory; [1]): 5 | Plant response rating, Morningglory (morningglory; [2]): 5 | Plant response rating, Morningglory (morningglory; [3]): 5 | Plant response rating, Morningglory (morningglory; [4]): 20 | Morningglory plant response rating (morningglory; [10]): 0 | Morningglory plant response rating (morningglory; [11]): 0 | Plant response rating, Morningglory (morningglory; [6]): 0 | Plant response rating (scale of 0 to 100), Morningglory (morningglory; Preemergence, 250 g ai/ha): 0 | Plant response rating, Johnsongrass (johnsongrass; [1]): 0 | Plant response rating, Johnsongrass (johnsongrass; [2]): 0 | Plant response rating, Johnsongrass (johnsongrass; [3]): 0 | Plant response rating, Johnsongrass (johnsongrass; [4]): 0 | Johnsongrass plant response rating (johnsongrass; [10]): 0 | Johnsongrass plant response rating (johnsongrass; [11]): 0 | Plant response rating, Johnsongrass (johnsongrass; [6]): 30 | Plant response rating (scale of 0 to 100), Johnsongrass (johnsongrass; Preemergence, 250 g ai/ha): 60 | Plant response rating, Wheat (wheat (winter wheat); [1]): 0 | Plant response rating, Wheat (wheat (winter wheat); [2]): 0 | Plant response rating, Wheat (wheat (winter wheat); [3]): 0 | Plant response rating, Wheat (wheat (winter wheat); [4]): 0 | Wheat plant response rating (wheat (winter wheat); [10]): 0 | Wheat plant response rating (wheat (winter wheat); [11]): 0 | Plant response rating, Wheat (wheat (winter wheat); [6]): 5 | Plant response rating (scale of 0 to 100), Wheat (wheat (winter wheat); Preemergence, 250 g ai/ha): 45 | Plant response rating, Galium (galium; [1]): 0 | Plant response rating, Galium (galium; [2]): 0 | Plant response rating, Galium (galium; [3]): 0 | Plant response rating, Galium (galium; [4]): 50 | Galium plant response rating (galium; [10]): 0 | Galium plant response rating (galium; [11]): 0 | Plant response rating, Galium (galium; [6]): 85 | Plant response rating (scale of 0 to 100), Galium (galium; Preemergence, 250 g ai/ha): 90 | Plant response rating, Pigweed (pigweed; [1]): 0 | Plant response rating, Pigweed (pigweed; [2]): 10 | Plant response rating, Pigweed (pigweed; [3]): 10 | Plant response rating, Pigweed (pigweed; [4]): 20 | Pigweed plant response rating (pigweed; [10]): 0 | Pigweed plant response rating (pigweed; [11]): 0 | Plant response rating, Pigweed (pigweed; [6]): 0 | Plant response rating (scale of 0 to 100), Pigweed (pigweed; Preemergence, 250 g ai/ha): 0 | Plant response rating, Lambsquarters (lambsquarters; [1]): 0 | Plant response rating, Lambsquarters (lambsquarters; [2]): 10 | Plant response rating, Lambsquarters (lambsquarters; [3]): 35 | Plant response rating, Lambsquarters (lambsquarters; [4]): 15 | Lambsquarters plant response rating (lambsquarters; [10]): 0 | Lambsquarters plant response rating (lambsquarters; [11]): 0 | Plant response rating, Lambsquarters (lambsquarters; [6]): 60 | Plant response rating (scale of 0 to 100), Lambsquarters (lambsquarters; Preemergence, 250 g ai/ha): 70

O=C1NCC(c2ccc(C(F)(F)F)cc2)C1C(=O)Nc1ccccc1Cl (stereo not drawn) [Compound 233]
Barnyardgrass plant response rating (barnyardgrass; Preemergence, 31 g ai/ha): 80 | Plant response rating, Barnyardgrass (barnyardgrass; [5]): 75 | Plant response rating, Barnyardgrass (barnyardgrass; [6]): 85 | Plant response rating (scale of 0 to 100; 0 is no effect, 100 is complete control), Barnyardgrass (barnyardgrass; Preemergence, 250 g ai/ha): 90 | Plant response rating, Foxtail, Giant (giant foxtail; [7]): 90 | Plant response rating, Foxtail, Giant (giant foxtail; [8]): 90 | Foxtail, Giant plant response rating (0 to 100 scale, 0 is no effect, 100 is complete control) (giant foxtail; Postemergence, 500 g ai/ha): 90 | Plant response rating, Foxtail, Giant (giant foxtail; [9]): 90 | Plant response rating, Wheat (wheat): 0 | Wheat plant response rating (0 to 100 scale, 0 is no effect, 100 is complete control) (wheat): 20 | Foxtail, Giant plant response rating (foxtail, giant; [10]): 85 | Foxtail, Giant plant response rating (foxtail, giant; [11]): 90 | Plant response rating, Foxtail, Giant (foxtail, giant; [6]): 90 | Plant response rating (scale of 0 to 100), Foxtail, Giant (foxtail, giant; Preemergence, 250 g ai/ha): 95 | Morningglory plant response rating (morningglory; [10]): 0 | Morningglory plant response rating (morningglory; [11]): 0 | Plant response rating, Morningglory (morningglory; [6]): 20 | Plant response rating (scale of 0 to 100), Morningglory (morningglory; Preemergence, 250 g ai/ha): 20 | Johnsongrass plant response rating (johnsongrass; [10]): 0 | Johnsongrass plant response rating (johnsongrass; [11]): 0 | Plant response rating, Johnsongrass (johnsongrass; [6]): 20 | Plant response rating (scale of 0 to 100), Johnsongrass (johnsongrass; Preemergence, 250 g ai/ha): 45 | Wheat plant response rating (wheat (winter wheat); [10]): 0 | Wheat plant response rating (wheat (winter wheat); [11]): 0 | Plant response rating, Wheat (wheat (winter wheat); [6]): 0 | Plant response rating (scale of 0 to 100), Wheat (wheat (winter wheat); Preemergence, 250 g ai/ha): 0 | Galium plant response rating (galium; [10]): 0 | Galium plant response rating (galium; [11]): 80 | Plant response rating, Galium (galium; [6]): 90 | Plant response rating (scale of 0 to 100), Galium (galium; Preemergence, 250 g ai/ha): 90 | Pigweed plant response rating (pigweed; [10]): 50 | Pigweed plant response rating (pigweed; [11]): 50 | Plant response rating, Pigweed (pigweed; [6]): 60 | Plant response rating (scale of 0 to 100), Pigweed (pigweed; Preemergence, 250 g ai/ha): 70 | Lambsquarters plant response rating (lambsquarters; [10]): 85 | Lambsquarters plant response rating (lambsquarters; [11]): 85 | Plant response rating, Lambsquarters (lambsquarters; [6]): 95 | Plant response rating (scale of 0 to 100), Lambsquarters (lambsquarters; Preemergence, 250 g ai/ha): 90
